Measured values taken from US10954287B2, “Ras binding peptides and methods of use” (Ra Pharmaceuticals, Inc., priority 2016, dated 2021).

System: GMPPNP-loaded H-Ras or GTP-loaded K-Ras
Experiment: Fluorescence polarization competition assay with TAMRA-labeled probe R4007
Assay type: binding, human
Conditions: 120 nM Ras, 30 nM probe R4007, 60 minutes at room temperature; read-out: Probe displacement (nM IC50)
Outline: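 120 nM GMPPNP-loaded H-Ras or GTP-loaded K-Ras was preincubated with 30 nM TAMRA-labeled R4007 probe for 20 min at room temperature in Tris pH 7.5 buffer with MgCl2, EDTA and Triton X-100. Serially diluted competitor was then added for 60 min. Polarization was read at 535/595 nm, with Ki from a one-site Ki fit and IC50 from probe displacement.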

With `CCC[C@H](NC(C)=O)C(=O)N[C@H]1CSCc2cccc(c2)CSC[C@@H](C(=O)NCC(=O)NCC(=O)NCC(=O)N[C@@H](CS)C(=O)N[C@H](C(=O)N[C@H](C(=O)N[C@@H](CCSC)C(=O)O)[C@@H](C)CC)C(C)C)NC(=O)CN(C)C(=O)[C@H](Cc2ccc(F)cc2)N(C)C(=O)[C@H](Cc2ccc(O)cc2)NC(=O)[C@H](Cc2c[nH]c3ncccc23)NC(=O)[C@H](c2ccccc2)NC(=O)[C@H](C)N(C)C(=O)[C@H](Cc2c[nH]cn2)NC(=O)[C@H](CCCCN)NC(=O)[C@H](C(C)(C)C)NC(=O)[C@H](Cc2ccc(O)cc2)NC1=O` (relative stereo) [Compound R4131, ACE-NVA-CYS*-TYR-TBG-LYS-HIS-NMA-PHG-7AW-TYR-MFF-SAR-CYS*-GLY-GLY-GLY-CYS-VAL-ILE-MET] the IC50 was 278 nM.

For `CCC[C@H](NC(C)=O)C(=O)N[C@H]1CSCc2cccc(c2)CSC[C@@H](C(N)=O)NC(=O)CN(C)C(=O)[C@H](Cc2ccc(F)cc2)N(C)C(=O)[C@H](Cc2ccc(O)cc2)NC(=O)[C@H](Cc2c[nH]c3ncccc23)NC(=O)[C@H](c2ccccc2)NC(=O)[C@H](CO)N(C)C(=O)[C@H](Cc2c[nH]cn2)NC(=O)[C@H](CCCCN)NC(=O)[C@H](C(C)(C)C)NC(=O)[C@H](Cc2ccc(O)cc2)NC1=O` (relative stereo) [Compound R4132, ACE-NVA-CYS*-TYR-TBG-LYS-HIS-NMS-PHG-SA7AW-TYR-MFF-R-CYS*-NH2], the IC50 was 281 nM.

`C=CC(=O)NCCCC[C@H]1C(=O)N[C@@H](c2ccccc2)C(=O)N[C@@H](Cc2c[nH]c3ncccc23)C(=O)N[C@@H](Cc2ccc(O)cc2)C(=O)N(C)[C@@H](Cc2ccc(F)cc2)C(=O)N(C)CC(=O)N[C@H](C(N)=O)CSCc2cccc(c2)CSC[C@H](NC(=O)[C@H](CCC)NC(C)=O)C(=O)N[C@@H](Cc2ccc(O)cc2)C(=O)N[C@@H](C(C)(C)C)C(=O)N[C@@H](C)C(=O)N[C@@H](Cc2c[nH]cn2)C(=O)N1C` (relative stereo) [Compound R4133, ACE-NVA-CYS*-TYR-TBG-ALA-HIS-MKAC-PHG-7AW-TYR-MFF-SAR-CYS*-NH2] showed an IC50 of 342 nM.

With `CCC[C@H](NC(C)=O)C(=O)N[C@H]1CSCc2cccc(c2)CSC[C@@H](C(N)=O)NC(=O)CN(C)C(=O)[C@H](Cc2ccc(F)cc2)N(C)C(=O)[C@H](Cc2ccc(O)cc2)NC(=O)[C@H](Cc2c[nH]c3ncccc23)NC(=O)[C@H](c2ccccc2)NC(=O)[C@H](C)N(C)C(=O)[C@H](Cc2c[nH]cn2)NC(=O)[C@H](CCCCNC(=O)c2ccc(N(C)C)cc2)NC(=O)[C@H](C(C)(C)C)NC(=O)[C@H](Cc2ccc(O)cc2)NC1=O` (relative stereo) [Compound R4134, ACE-NVA-CYS*-TYR-TBG-DMABZK1-HIS-NMA-PHG-7AW-TYR-MFF-SAR-CYS*-NH2] the IC50 was 346 nM.

`CCC[C@H](NC(C)=O)C(=O)N[C@H]1CSCc2cccc(c2)CSC[C@@H](C(=O)O)NC(=O)CN(C)C(=O)[C@H](Cc2ccc(F)cc2)N(C)C(=O)[C@H](Cc2ccc(O)cc2)NC(=O)[C@H](Cc2c[nH]c3ncccc23)NC(=O)[C@H](c2ccccc2)NC(=O)[C@H](C)N(C)C(=O)[C@H](Cc2c[nH]cn2)NC(=O)[C@H](CCCCNC(CC(C)C)=C2C(=O)CC(C)(C)CC2=O)NC(=O)[C@H](C(C)(C)C)NC(=O)[C@H](Cc2ccc(O)cc2)NC1=O` (relative stereo) [Compound R4135, ACE-NVA-CYS*-TYR-TBG-LYS-(DDE)-HIS-NMA-PHG-7AW-TYR-MFF-SAR-CYS*] showed an IC50 of 364 nM.

For `C=CC(=O)NC[C@@H]1NC(=O)[C@H](C)NC(=O)[C@H](C(C)(C)C)NC(=O)[C@H](Cc2ccc(O)cc2)NC(=O)[C@@H](NC(=O)[C@H](CCC)NC(C)=O)CSCc2cccc(c2)CSC[C@@H](C(N)=O)NC(=O)CN(C)C(=O)[C@H](Cc2ccc(F)cc2)N(C)C(=O)[C@H](Cc2ccc(O)cc2)NC(=O)[C@H](Cc2c[nH]c3ncccc23)NC(=O)[C@H](c2ccccc2)NC(=O)[C@H](C)N(C)C1=O` (relative stereo) [Compound R4136, ACE-NVA-CYS*-TYR-TBG-ALA-DABAC2-NMA-PHG-7AW-TYR-MFF-SAR-CYS*-NH2], the IC50 was 392 nM.

In the case of `CCC[C@H](NC(=O)CCCC(=O)O)C(=O)N[C@H]1CSCc2cccc(c2)CSC[C@@H](C(N)=O)NC(=O)CN(C)C(=O)[C@H](Cc2ccc(F)cc2)N(C)C(=O)[C@H](Cc2ccc(O)cc2)NC(=O)[C@H](Cc2c[nH]c3ncccc23)NC(=O)[C@H](c2ccccc2)NC(=O)[C@H](C)N(C)C(=O)[C@H](Cc2c[nH]cn2)NC(=O)[C@H](CCCCNC(CC(C)C)=C2C(=O)CC(C)(C)CC2=O)NC(=O)[C@H](C(C)(C)C)NC(=O)[C@H](Cc2ccc(O)cc2)NC1=O` (relative stereo) [Compound R4138, GLA-NVA-CYS*-TYR-TBG-LYS-(DDE)-HIS-NMA-PHG-7AW-TYR-MFF-SAR-CYS*-NH2], the IC50 is reported as 461 nM.

For `CCC[C@H](NC(C)=O)C(=O)N[C@H]1CSCc2cccc(c2)CSC[C@@H](C(N)=O)NC(=O)CN(C)C(=O)[C@H](Cc2ccc(F)cc2)N(C)C(=O)[C@H](Cc2ccc(O)cc2)NC(=O)[C@H](Cc2c[nH]c3ncccc23)NC(=O)[C@H](c2ccccc2)NC(=O)[C@H](C)N(C)C(=O)[C@H](CCN)NC(=O)[C@H](C)NC(=O)[C@H](C(C)(C)C)NC(=O)[C@H](Cc2ccc(O)cc2)NC1=O` (relative stereo) [Compound R4140, ACE-NVA-CYS*-TYR-TBG-ALA-DBA-NMA-PHG-7AW-TYR-MFF-SAR-CYS*-NH2], the IC50 was 608 nM.

Work on `CCC[C@H](NC(C)=O)C(=O)N[C@H]1CSCc2cccc(c2)CSC[C@@H](C(N)=O)NC(=O)CN(C)C(=O)[C@H](Cc2ccc(F)cc2)N(C)C(=O)[C@H](Cc2ccc(O)cc2)NC(=O)[C@H](Cc2c[nH]c3ncccc23)NC(=O)[C@H](c2ccccc2)NC(=O)[C@H](C)N(C)C(=O)[C@H](CN)NC(=O)[C@H](C)NC(=O)[C@H](C(C)(C)C)NC(=O)[C@H](Cc2ccc(O)cc2)NC1=O` (relative stereo) [Compound R4141, ACE-NVA-CYS*-TYR-TBG-ALA-DAP-NMA-PHG-7AW-TYR-MFF-SAR-CYS*-NH2] yielded an IC50 of 695 nM.

Compound `C=CC(=O)NCCC[C@H]1C(=O)N[C@@H](c2ccccc2)C(=O)N[C@@H](Cc2c[nH]c3ncccc23)C(=O)N[C@@H](Cc2ccc(O)cc2)C(=O)N(C)[C@@H](Cc2ccc(F)cc2)C(=O)N(C)CC(=O)N[C@H](C(N)=O)CSCc2cccc(c2)CSC[C@H](NC(=O)[C@H](CCC)NC(C)=O)C(=O)N[C@@H](Cc2ccc(O)cc2)C(=O)N[C@@H](C(C)(C)C)C(=O)N[C@@H](C)C(=O)N[C@@H](Cc2c[nH]cn2)C(=O)N1C` (relative stereo) [Compound R4142, ACE-NVA-CYS*-TYR-TBG-ALA-HIS-MORAC-PHG-7AW-TYR-MFF-SAR-CYS*-NH2] has an IC50 of 1240 nM.

Work on `CCC[C@H](NC(C)=O)C(=O)N[C@H]1CSCc2cccc(c2)CSC[C@@H](C(=O)NCC(=O)NCC(=O)NCC(=O)N[C@@H](CS)C(=O)N[C@H](C(=O)N[C@H](C(=O)N[C@@H](CCSC)C(=O)O)[C@@H](C)CC)C(C)C)NC(=O)CN(C)C(=O)[C@H](C)N(C)C(=O)[C@H](Cc2ccc(O)cc2)NC(=O)[C@H](Cc2c[nH]c3ncccc23)NC(=O)[C@H](C)NC(=O)[C@H](C)N(C)C(=O)[C@H](Cc2c[nH]cn2)NC(=O)[C@H](CCCCN)NC(=O)[C@H](C(C)(C)C)NC(=O)[C@H](Cc2ccc(O)cc2)NC1=O` (relative stereo) [Compound R4143, ACE-NVA-CYS*-TYR-TBG-LYS-HIS-NMA-ALA-7AW-TYR-NMA-SAR-CYS*-GLY-GLY-GLY-CYS-VAL-ILE-MET] yielded an IC50 of 1640 nM.

`CCC[C@H](NC(C)=O)C(=O)N[C@H]1CSCc2cccc(c2)CSC[C@@H](C(N)=O)NC(=O)CN(C)C(=O)[C@H](Cc2ccc(F)cc2)N(C)C(=O)[C@H](Cc2ccc(O)cc2)NC(=O)[C@H](Cc2c[nH]c3ncccc23)NC(=O)[C@H](c2ccccc2)NC(=O)[C@H](C)N(C)C(=O)[C@H]2CCCN2C(=O)[C@H](CCCCN)NC(=O)[C@H](C(C)(C)C)NC(=O)[C@H](Cc2ccc(O)cc2)NC1=O` (relative stereo) [Compound R4144, ACE-NVA-CYS*-TYR-TBG-LYS-DPRO-NMA-PHG-7AW-TYR-MFF-SAR-CYS*-NH2] showed an IC50 of 1960 nM.

`C#CC[C@@H]1NC(=O)CN(C)C(=O)[C@H](Cc2ccc(F)cc2)N(C)C(=O)[C@H](Cc2ccc(O)cc2)NC(=O)[C@H](Cc2c[nH]c3ncccc23)NC(=O)[C@H](c2ccccc2)NC(=O)[C@H](C)N(C)C(=O)[C@H](Cc2c[nH]cn2)NC(=O)[C@H](CCCCN)NC(=O)[C@H](C(C)(C)C)NC(=O)[C@H](Cc2ccc(O)cc2)NC1=O` (relative stereo) [Compound R4145, TYR*-TBG-LYS-HIS-NMA-PHG-7AW-TYR-MFF-SAR-PRG*] gave an IC50 of 2800 nM.

Work on `C=CC(=O)NCC[C@@H]1NC(=O)[C@H](C)NC(=O)[C@H](C(C)(C)C)NC(=O)[C@H](Cc2ccc(O)cc2)NC(=O)[C@@H](NC(=O)[C@H](CCC)NC(C)=O)CSCc2cccc(c2)CSC[C@@H](C(N)=O)NC(=O)CN(C)C(=O)[C@H](Cc2ccc(F)cc2)N(C)C(=O)[C@H](Cc2ccc(O)cc2)NC(=O)[C@H](Cc2c[nH]c3ncccc23)NC(=O)[C@H](c2ccccc2)NC(=O)[C@H](C)N(C)C1=O` (relative stereo) [Compound R4146, ACE-NVA-CYS*-TYR-TBG-ALA-DABAC1-NMA-PHG-7AW-TYR-MFF-SAR-CYS*-NH2] yielded an IC50 of 3390 nM.

`CCC[C@H](NC(C)=O)C(=O)N[C@H]1CSCc2cccc(c2)CSC[C@@H](C(N)=O)NC(=O)CN(C)C(=O)[C@H](Cc2ccc(F)cc2)N(C)C(=O)[C@H](Cc2ccc(O)cc2)NC(=O)[C@H](Cc2c[nH]c3ncccc23)NC(=O)[C@H](C2CCCCC2)NC(=O)[C@H](C)N(C)C(=O)[C@H](Cc2c[nH]cn2)NC(=O)[C@H](CCCCN)NC(=O)[C@H](C(C)(C)C)NC(=O)[C@H](Cc2ccc(O)cc2)NC1=O` (relative stereo) [Compound R4149, ACE-NVA-CYS*-TYR-TBG-LYS-HIS-NMA-CHG-7AW-TYR-MFF-SAR-CYS*-NH2] showed an IC50 of 6260 nM.

Work on `CCC[C@H](NC(C)=O)C(=O)N[C@H]1CSCc2cccc(c2)CSC[C@@H](C(N)=O)NC(=O)CN(C)C(=O)[C@H](Cc2ccc(F)cc2)N(C)C(=O)[C@H](Cc2ccc(O)cc2)NC(=O)[C@H](Cc2c[nH]c3ncccc23)NC(=O)[C@H](c2ccccc2)NC(=O)[C@H](C)N(C)C(=O)[C@H](Cc2c[nH]cn2)NC(=O)[C@H](CCCCN)NC(=O)[C@H](C(C)(C)C)NC(=O)[C@H](C)NC1=O` (relative stereo) [Compound R4152, ACE-NVA-CYS*-ALA-TBG-LYS-HIS-NMA-PHG-7AW-TYR-MFF-SAR-CYS*-NH2] yielded an IC50 of 28300 nM.
